Test results: patent publication US9988430B2, “Stable GLP-1 based GLP-1/glucagon receptor co-agonists” (Novo Nordisk A/S, priority 2014, dated 2018)
*1 amine or outer side, *2 acyl side, *3 side chain or, on linkers, in order; H or OH if unused. Where a SMILES comes first, the peptide text is derived from it. Bridges are numbered along the chain shown (N, C = ends). Roman numbers before positions name the chains, in order. Side-chain parts run from the residue outwards. [ ]: non-standard residue; d: D form. The star is where a group is joined. C20 diacid = O=C(O)CCCCCCCCCCCCCCCCCCC(=O)*; C18 diacid = O=C(O)CCCCCCCCCCCCCCCCC(=O)*; γGlu = O=C(O)[C@H](CCC(=O)[*:2])N[*:1]; Desaminohistidyl = O=C(CCc1c[nH]cn1)*; AEEA = NCCOCCOCC(=O)O; Aib = CC(C)(N)C(=O)O

What was measured:
[1] = target: T1, human GLP-1 receptor (Homo sapiens, UniProt P43220); assay: Assay (I)(a): GLP-1 receptor potency, CRE luciferase reporter gene assay in BHK cells; format: cell-based; conditions: BHK cells expressing human GLP-1 receptor, read-out: EC50 GLP-1R
T1 construct: expressed in transfected cells; host or cells: membranes of BHK cells, parent line BHKTS13, clone FCW467-12A
Procedure: Assay (I): GLP-1 and Glucagon Receptor Potency The purpose of this example was to test the activity or potency, of the GLP-1 derivatives of the invention, in vitro. The in vitro potency is the measure of human GLP-1 receptor (GLP-1R) or glucagon receptor (glucagonR) activation, respectively, in a whole cell assay. In vitro potency was determined by measuring the cellular response of human GLP-1 or glucagon receptor activation, respectively, in a reporter gene assay. The assay was performed in a BHK cell line that stably expresses either the human GLP-1 receptor or the human glucagon receptor and comprises the DNA for the cAMP response element (CRE) coupled to a promoter and the gene for firefly luciferase (CRE luciferase). […] When assay incubation was completed, the luciferase substrate (luciferin) was added and the enzyme converted luciferin to oxyluciferin and produces bioluminescence. The luminescence was measured as the readout for the assay. (a) GLP-1 Receptor Activation The cells used in this assay (clone FCW467-12A/KZ10-1) were BHK cells with BHKTS13 as a parent cell line. The cells were derived from a clone (FCW467-12A) that expresses the human GLP-1 receptor and were established by further transfection with CRE luciferase to obtain the current clone. The cells were cultured at 5% CO2 in DMEM medium with 10% FBS, 1×GlutaMAX, 1 mg/ml G418, 240 nM MTX (methotrexate) and 1% pen/strep (penicillin/streptomycin). They were aliquoted and stored in liquid nitrogen. Before each assay, an aliquot was taken up and washed three times in PBS before being suspended at the desired concentration in assay medium. For 96-well plates the suspension was made to give a final concentration of 5×10EE3 cells/well. The following chemicals were used in the assay: Pluronic F-68 (10%) (Gibco 2404), Ovalbumin (Sigma A5503), DMEM w/o phenol red (Gibco 11880-028), 1 M Hepes (Gibco 15630), Glutamax 100× (Gibco 35050) and steadylite plus (PerkinElmer 6016757). Assay Medium consisted of DMEM w/o phenol red, 10 mM Hepes, 1×GlutaMAX, 2% Ovalbumin and 0.2% Pluronic F-68. Cell stocks were thawed in a 37° C. water bath. Cells were washed three times in PBS. The cells were counted and adjusted to 5×10EE3 cells/50 μl (1×10EE5 cells/ml) in Assay Medium. A 50 μl aliquot of cells was transferred to each well in the assay plate. Stocks of the test compounds and reference compounds were diluted to a concentration of […] in Assay Medium. Compounds were diluted 10-fold to give the following concentrations: 2×10EE-6 M, 2×10EE-7 M, 2×10EE-8 M; 2×10EE-9 M, 2×10EE-10 M, 2×10EE-11 M, 2×10EE-12 M and 2×10EE-13 M. For each compound a blank assay medium control was also included. A 50 μl aliquot of compound or blank was transferred from the dilution plate to the assay plate. Compounds were tested at the following final concentrations: 1×10EE-6 M, 1×10EE-7 M, 1×10EE-8 M; 1×10EE-9 M, 1×10EE-10 M, 1×10EE-11 M and 1×10EE-12 M and 1×10EE-13 M. The assay plate was incubated for 3 h in a 5% CO2 incubator at 37° C. The assay plate was removed from the incubator and allowed to stand at room temperature for 15 min. A 100 μl aliquot of steadylite plus reagent was added to each well of the assay plate (reagent is light sensitive). Each assay plate was covered with aluminum foil to protect it from light and shaken for 30 min at room temperature. Each assay plate was read in a Perkin Elmer TopCount NXT instrument. The data from the TopCount instrument was transferred to GraphPad Prism software. The software performed a non-linear regression (log(agonist) vs response-Variable slope (four parameter)). EC50 values were calculated by the software and reported in pM.

[2] = target: T1, human GLP-1 receptor; assay: Assay (II)(a): GLP-1 receptor binding, [125I]GLP-1 displacement, SPA on BHK membranes; conditions: displacement of [125I]GLP-1, membranes with human GLP-1 receptor; read-out: IC50 GLP-1R
Outline: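 Membranes from BHK cells expressing human GLP-1 receptor with WGA SPA beads, [125I]GLP-1(7-36)NH2 (480 pM added solution) and compound in HEPES pH 7.4 buffer with EGTA, MgCl2, Tween 20. Incubated 2 h at 30° C; SPA counts fitted by non-linear regression to IC50 in nM.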

T1 sequence (P43220 24-463): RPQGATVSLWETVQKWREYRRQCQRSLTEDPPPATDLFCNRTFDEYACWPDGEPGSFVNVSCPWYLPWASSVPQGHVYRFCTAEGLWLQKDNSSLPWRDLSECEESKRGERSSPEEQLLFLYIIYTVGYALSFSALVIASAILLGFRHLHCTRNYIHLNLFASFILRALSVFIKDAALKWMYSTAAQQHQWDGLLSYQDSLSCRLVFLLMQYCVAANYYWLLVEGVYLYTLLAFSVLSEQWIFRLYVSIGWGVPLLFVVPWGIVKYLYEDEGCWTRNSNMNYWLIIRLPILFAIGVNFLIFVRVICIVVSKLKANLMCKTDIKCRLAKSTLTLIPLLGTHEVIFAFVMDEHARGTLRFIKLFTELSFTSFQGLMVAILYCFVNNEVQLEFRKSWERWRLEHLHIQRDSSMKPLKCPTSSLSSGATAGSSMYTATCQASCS

SMILES | EC50 [1] | IC50 [2]
CC[C@H](C)[C@H](NC(=O)[C@H](Cc1ccccc1)NC(=O)[C@H](CCC(=O)O)NC(=O)[C@H](CCCNC(=N)N)NC(=O)[C@H](C)NC(=O)[C@H](C)NC(=O)[C@H](CCC(N)=O)NC(=O)[C@H](CCC(=O)O)NC(=O)[C@H](CCC(=O)O)NC(=O)[C@H](CC(C)C)NC(=O)[C@H](Cc1ccc(O)cc1)NC(=O)[C@H](CCCCN)NC(=O)[C@H](CO)NC(=O)[C@@H](NC(=O)[C@H](CC(=O)O)NC(=O)[C@H](CO)NC(=O)[C@@H](NC(=O)[C@H](Cc1ccccc1)NC(=O)[C@@H](NC(=O)CNC(=O)[C@H](Cc1c[nH]cn1)NC(=O)C(C)(C)NC(=O)CCc1c[nH]cn1)[C@@H](C)O)[C@@H](C)O)C(C)C)C(=O)N[C@@H](C)C(=O)N[C@@H](Cc1c[nH]c2ccccc12)C(=O)N[C@@H](CC(C)C)C(=O)N[C@@H](CC(C)C)C(=O)N[C@@H](CCCCNC(=O)CNC(=O)[C@H](CO)NC(=O)[C@H](CCC(=O)O)NC(=O)CNC(=O)[C@H](CO)NC(=O)CC[C@H](NC(=O)CC[C@H](NC(=O)CCCCCCCCCCCCCCCCCCC(=O)O)C(=O)O)C(=O)O)C(=O)N[C@H](C(N)=O)[C@@H](C)O [Example 30, N^ε34-[2-[[(2S)-2-[[(2S)-4-carboxy-2-[[2-[[(2S)-2-[[(4S)-4-carboxy-4-[[(4S)-4-carboxy-4-(19-carboxynonadecanoylamino)butanoyl]amino]butanoyl]amino]-3-hydroxypropanoyl]amino]acetyl]amino]butanoyl]amino]-3-hydroxypropanoyl]amino]acetyl]-[Imp7,Aib8,His9,Lys18,Glu22,Arg26,Leu33,Thr35]-GLP-1-(7-35)-peptide amide] (I: Desaminohistidyl-[Aib]HGTFTSDVSKYLEEQAAREFIAWLLKT-NH2 / II: {C20 diacid-γGlu-γGlu}-SGESG; amide I:27-II:C) | 5 pM | 400 pM
CC[C@H](C)[C@H](NC(=O)[C@H](Cc1ccccc1)NC(=O)[C@H](CCCCNC(=O)COCCOCCNC(=O)COCCOCCNC(=O)CC[C@H](NC(=O)CC[C@H](NC(=O)CC[C@H](NC(=O)CCCCCCCCCCCCCCCCC(=O)O)C(=O)O)C(=O)O)C(=O)O)NC(=O)[C@H](CCCNC(=N)N)NC(=O)[C@H](C)NC(=O)[C@H](C)NC(=O)[C@H](CCC(N)=O)NC(=O)[C@H](CCC(=O)O)NC(=O)[C@H](CCC(=O)O)NC(=O)[C@H](CC(C)C)NC(=O)[C@H](Cc1ccc(O)cc1)NC(=O)[C@H](CCCNC(=N)N)NC(=O)[C@H](CO)NC(=O)[C@@H](NC(=O)[C@H](CC(=O)O)NC(=O)[C@H](CO)NC(=O)[C@@H](NC(=O)[C@H](Cc1ccccc1)NC(=O)[C@@H](NC(=O)CNC(=O)[C@H](Cc1c[nH]cn1)NC(=O)[C@H](C)NC(=O)CCc1c[nH]cn1)[C@@H](C)O)[C@@H](C)O)C(C)C)C(=O)N[C@@H](C)C(=O)N[C@@H](Cc1c[nH]c2ccccc12)C(=O)N[C@@H](CC(C)C)C(=O)N[C@@H](CC(C)C)C(=O)N[C@@H](CCCNC(=N)N)C(=O)O [Example 18, N^ε27-[2-[2-[2-[[2-[2-[2-[[(4S)-4-carboxy-4-[[(4S)-4-carboxy-4-[[(4S)-4-carboxy-4-(17-carboxyheptadecanoylamino)butanoyl]amino]butanoyl]amino]butanoyl]amino]ethoxy]ethoxy]acetyl]amino]ethoxy]ethoxy]acetyl]-[Imp7,His9,Arg18,Glu22,Arg26,Lys27,Leu33,Arg34]-GLP-1-(7-34)-peptide] (Desaminohistidyl-AHGTFTSDVSRYLEEQAARK([AEEA-AEEA-γGlu-γGlu-γGlu-C18 diacid])FIAWLLR-OH) | 8 pM | –
CC[C@H](C)[C@H](NC(=O)[C@H](Cc1ccccc1)NC(=O)[C@H](CCC(=O)O)NC(=O)[C@H](CCCNC(=N)N)NC(=O)[C@H](C)NC(=O)[C@H](C)NC(=O)[C@H](CCCNC(=N)N)NC(=O)CNC(=O)[C@H](CCC(=O)O)NC(=O)[C@H](CC(C)C)NC(=O)[C@H](Cc1ccc(O)cc1)NC(=O)[C@H](CCCNC(=N)N)NC(=O)[C@H](CO)NC(=O)[C@@H](NC(=O)[C@H](CC(=O)O)NC(=O)[C@H](CO)NC(=O)[C@@H](NC(=O)[C@H](Cc1ccccc1)NC(=O)[C@@H](NC(=O)CNC(=O)[C@H](Cc1c[nH]cn1)NC(=O)C(C)(C)NC(=O)CCc1c[nH]cn1)[C@@H](C)O)[C@@H](C)O)C(C)C)C(=O)N[C@@H](C)C(=O)N[C@@H](Cc1c[nH]c2ccccc12)C(=O)N[C@@H](CC(C)C)C(=O)N[C@@H](CC(C)C)C(=O)N[C@@H](CCCCNC(=O)CC[C@H](NC(=O)CC[C@H](NC(=O)COCCOCCNC(=O)CC[C@H](NC(=O)CC[C@H](NC(=O)CCCCCCCCCCCCCCCCC(=O)O)C(=O)O)C(=O)O)C(=O)O)C(=O)O)C(=O)NCC(=O)N[C@@H](CO)C(=O)NCC(=O)O [Example 36, N^ε34-[(4S)-4-carboxy-4-[[(4S)-4-carboxy-4-[[2-[2-[2-[[(4S)-4-carboxy-4-[[(4S)-4-carboxy-4-(17-carboxyheptadecanoylamino)butanoyl]amino]butanoyl]amino]ethoxy]ethoxy]acetyl]amino]butanoyl]amino]butanoyl]-[Imp7,Aib8,His9,Arg18,Arg23,Arg26,Leu33,Ser36]-GLP-1-(7-37)-peptide] (Desaminohistidyl-[Aib]HGTFTSDVSRYLEGRAAREFIAWLLK([γGlu-γGlu-AEEA-γGlu-γGlu-C18 diacid])GSG-OH) | 6 pM | –
CC[C@H](C)[C@H](NC(=O)[C@H](Cc1ccccc1)NC(=O)[C@H](CCC(=O)O)NC(=O)[C@H](CCCNC(=N)N)NC(=O)[C@H](C)NC(=O)[C@H](C)NC(=O)[C@H](CCC(N)=O)NC(=O)[C@H](C)NC(=O)[C@H](CCC(=O)O)NC(=O)[C@H](CC(C)C)NC(=O)[C@H](Cc1ccc(O)cc1)NC(=O)[C@H](CCCCN)NC(=O)[C@H](CO)NC(=O)[C@@H](NC(=O)[C@H](CC(=O)O)NC(=O)[C@H](CO)NC(=O)[C@@H](NC(=O)[C@H](Cc1ccccc1)NC(=O)[C@@H](NC(=O)CNC(=O)[C@H](Cc1c[nH]cn1)NC(=O)C(C)(C)NC(=O)CCc1c[nH]cn1)[C@@H](C)O)[C@@H](C)O)C(C)C)C(=O)N[C@@H](C)C(=O)N[C@@H](Cc1c[nH]c2ccccc12)C(=O)N[C@@H](CC(C)C)C(=O)N[C@@H](CC(C)C)C(=O)N[C@@H](CCCCNC(=O)CC[C@H](NC(=O)CC[C@H](NC(=O)COCCOCCNC(=O)CC[C@H](NC(=O)CC[C@H](NC(=O)CCCCCCCCCCCCCCCCC(=O)O)C(=O)O)C(=O)O)C(=O)O)C(=O)O)C(=O)N[C@H](C(N)=O)[C@@H](C)O [Example 34, N^ε34-[(4S)-4-carboxy-4-[[(4S)-4-carboxy-4-[[2-[2-[2-[[(4S)-4-carboxy-4-[[(4S)-4-carboxy-4-(17-carboxyheptadecanoylamino)butanoyl]amino]butanoyl]amino]ethoxy]ethoxy]acetyl]amino]butanoyl]amino]butanoyl]-[Imp7,Aib8,His9,Lys18,Ala22,Arg26,Leu33,Thr35]-GLP-1-(7-35)-peptide amide] (Desaminohistidyl-[Aib]HGTFTSDVSKYLEAQAAREFIAWLLK([γGlu-γGlu-AEEA-γGlu-γGlu-C18 diacid])T-NH2) | 3 pM | –
